Active and inactive are the calls of the source. The rule behind the calls is not given here. Bounds are passed on as bounds.

These results are taken from PubChem BioAssay AID434987 (Southern Research Specialized Biocontainment Screening …, 2010).

The subject of this assay is M. tuberculosis H37Rv growth inhibition with meropenem. Put plainly: dose response, H37Rv, with and without meropenem (AID 434987).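 Note: growth over 7 days at 37 °C before Alamar Blue read on day 9.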
Setting [1] is: M. tuberculosis H37Rv growth inhibition, measured here: IC50 without meropenem.
Setting [2] is: M. tuberculosis H37Rv growth inhibition, measured here: IC90 without meropenem.
Setting [3] is: measured here: IC90 with meropenem.

As usually defined, the IC50 is the point on the concentration scale where inhibition reaches its midpoint. A word on the IC90: it is the concentration at which the effect reaches the 90% level. The low end stands for greater potency, the high end for weaker potency. With `COc1cc2cnc(-c3ccsc3)c(-c3ccc(F)cc3)c2cc1OC`, the IC50 was > 100 µM (inactive). This compound also registered an IC50 under setting [1] greater than 100 µM. This compound also displayed a concentration for an effect of 90% (IC90) under setting [2] greater than 100 µM. The concentration for an effect of 90% (IC90) under setting [3] is greater than 100 µM.

As to `COc1ccc(NC(=O)c2cc(Br)ccc2Cl)c(OC)c1`, the IC50 was 23.2 µM. Moreover, under setting [1], the half-maximal inhibitory concentration (IC50) was greater than 100 µM. Besides, the 90% effect concentration (IC90) under setting [2] was greater than 100 µM. Moreover, the IC90 under setting [3] was greater than 100 µM.

On to `CC(=O)c1ccc(NC(=S)Nc2ccc(N3CCOCC3)cc2)cc1`, for which the IC50 is 21.6 µM. For the same compound, the 50% inhibitory concentration (IC50) under setting [1] is greater than 100 µM. Under setting [2], the IC90 is greater than 100 µM. Under setting [3], this compound showed a 90% effect concentration (IC90) greater than 100 µM.

For the compound `CNC(=O)COC(=O)c1ccccc1NC(=O)c1ccco1`, the IC50 is 35.1 µM (inactive). Further, the IC50 under setting [1] stood at 47.1 µM. Under setting [2], this compound registered an IC90 greater than 100 µM. Besides, under setting [3], the concentration for an effect of 90% (IC90) was greater than 100 µM.

In the case of `CCOC(=O)/C=C/c1ccc2c(c1)S(=O)(=O)N(Cc1ccc(OC)cc1)[C@H]2CC(=O)OCC`, the IC50 was > 100 µM (inactive). Besides, the IC50 under setting [1] was greater than 100 µM. Also, the IC90 under setting [2] was greater than 100 µM. The concentration for an effect of 90% (IC90) under setting [3] is greater than 100 µM.

As for `COc1cc(C(=O)NC2CCCCC2)ccc1OCc1ccc(Cl)cc1Cl`, the IC50 was > 100 µM (inactive). Moreover, the IC50 under setting [1] was greater than 100 µM. Further, under setting [2], the IC90 is greater than 100 µM. Besides, the IC90 under setting [3] is greater than 100 µM.

As for `COc1cc(C(=O)Nc2cccc(-c3cn4cccnc4n3)c2)cc(OC)c1OC`, the 50% inhibitory concentration (IC50) was 10.9 µM. For the same compound, the IC50 under setting [1] came to 35 µM. This compound gave an IC90 under setting [2] greater than 100 µM. Also, the IC90 under setting [3] is 30.2 µM.

Regarding `Cc1ccc(C)c(N2CCN(CC3CCCCC3)CC2)c1`, the half-inhibitory concentration (IC50) was 37.9 µM. The same compound returned an IC50 under setting [1] of 95.9 µM. Moreover, under setting [2], the IC90 was greater than 100 µM. In addition, the concentration for an effect of 90% (IC90) under setting [3] came out at 52.4 µM.

Consider `CCN(CC)C(=O)Cn1cc(C(=O)C(=O)N2CCN(c3ccccc3)CC2)c2ccccc21`, for which the IC50 is > 100 µM (inactive). Under setting [1], this compound showed an IC50 greater than 100 µM. The compound also returned an IC90 under setting [2] greater than 100 µM. The 90% effect concentration (IC90) under setting [3] is greater than 100 µM.

As for `Cc1cc(C)cc(OCC(=O)NNC(=O)c2ccccn2)c1`, the IC50 is 1.66 µM. Besides, the IC50 under setting [1] was 10.9 µM. Under setting [2], this compound had an IC90 of 22.3 µM. The IC90 under setting [3] is 16 µM.

In the case of `Cc1nn(CCc2nn[nH]n2)c2nc(-c3ccc(C4CCCCC4)cc3)cc(C(F)(F)F)c12`, the IC50 is 8.62 µM. The same compound returned an IC50 under setting [1] of 24.9 µM. The same compound had an IC90 under setting [2] of 50 µM. This compound displayed an IC90 under setting [3] greater than 100 µM.

As to `COC(=O)c1c(NC(=O)c2ccc(C)cc2)csc1C`, the IC50 is 48.9 µM (inactive). The compound further displayed an IC50 under setting [1] of 84 µM. Under setting [2], this compound yielded an IC90 greater than 100 µM. Under setting [3], this compound gave an IC90 greater than 100 µM.

On to `O=C(CC12CC3CC(CC(C3)C1)C2)NCc1ccc(F)cc1`, for which the IC50 was 7.43 µM. This compound also had an IC50 under setting [1] greater than 100 µM. Moreover, under setting [2], the IC90 was greater than 100 µM. This compound gave a concentration for an effect of 90% (IC90) under setting [3] of 10.4 µM.

`N#Cc1ccc(NCC(=O)Nc2ccc(S(=O)(=O)N3CCCCC3)cc2)cc1`: the IC50 was > 100 µM (inactive). For the same compound, the IC50 under setting [1] was greater than 100 µM. The compound also showed an IC90 under setting [2] greater than 100 µM. The concentration for an effect of 90% (IC90) under setting [3] was greater than 100 µM.

Regarding `CN(C)S(=O)(=O)c1ccc(C(=O)/C=C/c2cccnc2)cc1`, the IC50 was 5.92 µM (inactive). This compound showed a 50% inhibitory concentration (IC50) under setting [1] of 9.41 µM. The same compound yielded an IC90 under setting [2] of 13.9 µM. The compound also yielded an IC90 under setting [3] of 12.1 µM.

`O=C(N/N=C/c1cccc(Br)c1)c1ccc(Cn2cc(Br)cn2)o1`: the IC50 was 99.8 µM (inactive). This compound also displayed an IC50 under setting [1] greater than 100 µM. Under setting [2], the IC90 was greater than 100 µM. Further, under setting [3], the IC90 is greater than 100 µM.

`COc1ccnc(CS(=O)c2nc3cc(OC(F)F)ccc3[nH]2)c1OC` (configuration not stated): the IC50 is > 100 µM (inactive). Further, the IC50 under setting [1] is greater than 100 µM. Besides, under setting [2], the concentration for an effect of 90% (IC90) is greater than 100 µM. Moreover, under setting [3], the IC90 was greater than 100 µM.

As to `CC(NC(=O)CSc1nc2ccccc2c(=O)[nH]1)c1ccccc1` (configuration not stated), the IC50 is 18.9 µM (inactive). The half-inhibitory concentration (IC50) under setting [1] stood at 23.8 µM. The IC90 under setting [2] was greater than 100 µM. Under setting [3], this compound gave an IC90 of 60.9 µM.

In the case of `COc1cccc(NC(=O)c2cc(-c3cccnc3)nc3c(Cl)cccc23)c1`, the IC50 is > 100 µM (inactive). The same compound displayed an IC50 under setting [1] greater than 100 µM. The IC90 under setting [2] was greater than 100 µM. The IC90 under setting [3] is greater than 100 µM.

As to `O=C(OC(C(=O)Nc1ccc(Cl)cc1C(F)(F)F)c1ccccc1)C1=COCCO1` (configuration not stated), the half-maximal inhibitory concentration (IC50) was 1.23 µM. The compound also came in with an IC50 under setting [1] greater than 100 µM. This compound yielded an IC90 under setting [2] greater than 100 µM. Under setting [3], the IC90 is greater than 100 µM.

As to `CN(C)c1ccc(N=Nc2cccc3ccoc23)cc1`, the IC50 is > 100 µM (inactive). The IC50 under setting [1] is greater than 100 µM. Under setting [2], this compound registered an IC90 greater than 100 µM. Also, the IC90 under setting [3] is greater than 100 µM.

Consider `C/C(=N/NC(=O)c1ccccn1)c1ccncc1`, for which the IC50 is 9.52 µM. The compound further returned an IC50 under setting [1] of 31.8 µM. The 90% effect concentration (IC90) under setting [2] is greater than 100 µM. The same compound had an IC90 under setting [3] of 23.1 µM.

For the compound `COc1cc(-c2nc(S(=O)(=O)c3ccc(C)cc3)c(N3CCOCC3)o2)cc(OC)c1OC`, the IC50 was > 100 µM (inactive). Under setting [1], this compound displayed an IC50 greater than 100 µM. Under setting [2], the IC90 was greater than 100 µM. Besides, the IC90 under setting [3] was greater than 100 µM.
